The test system of the test is lymphocytic leukemia P388. Description: Lymphocytic Leukemia P388 Test. Format: in vivo, BDF1 mice. The settings on record: for Median Survival: BDF1 mice; for T/C × 100 (%): ratio of survival time treated/control. The protocol:
The animals used were BDF1 mice, all of one sex, weighing a minimum of 18 g and all within a 3 g weight range. There were 5 or 6 mice per test group. The tumor transplant was by intraperitoneal injection of 0.5 ml of dilute ascitic fluid containing 10^6 cells of lymphocytic leukemia P388. The test compounds were administered intraperitoneally on days 1, 5 and 9 (relative to tumor inocu-lation) at various doses. The animals were weighed and survivors recorded on a regular basis for 60 days. The median survival time and the ratio of survival time for treated (T)/control (C) animals were calculated.

Setting [1] is: dose 0.75 mg/kg intraperitoneally on days 1, 5 and 9.
The mark [2] stands for this setting: dose 1.5 mg/kg intraperitoneally on days 1, 5 and 9.
Where [3] appears, read: dose 3 mg/kg intraperitoneally on days 1, 5 and 9.

For the compound `CC(C)(C)OC(=O)N[C@@H](COCc1ccccc1)C(=O)NCCNc1ccc(NCCNC(=O)[C@H](COCc2ccccc2)NC(=O)OC(C)(C)C)c2c1C(=O)c1c(O)ccc(O)c1C2=O` (relative stereo) [Example 41, S-(R*,R*)]-N,N'-[(9,10-Dihydro-5,8-dihydroxy-9,10-dioxo-1,4-anthracenediyl)bis[imino-2,1-ethanediylimino-[2-oxo-1-[(phenylmethoxy)methyl]-2,1-ethanediyl]]]biscarbamic acid, bis(1,1-dimethylethyl)ester], the “Median Survival” value under setting [1] came to 12.0 days, the “Median Survival” value under setting [2] came to 13.5 days and the “Median Survival” value under setting [3] turned out to be 15.5 days. Also, the “T/C × 100 (%)” value by setting is: under setting [1], 120%; under setting [2], 135%; under setting [3], 155%.

On to `N[C@@H](COCc1ccccc1)C(=O)NCCNc1ccc(NCCNC(=O)[C@@H](N)COCc2ccccc2)c2c1C(=O)c1c(O)ccc(O)c1C2=O.O=C(O)C(F)(F)F.O=C(O)C(F)(F)F` (relative stereo) [Example 42, [S-(R*,R*)]-N,N'-[(9,10-Dihydro-5,8-dihydroxy-9,10-dioxo-1,4-anthracenediyl)bis[imino-2,1-ethanediyl)]bis[2-amino-3-(phenylmethoxy)-propanamide]bis(trifluoroacetate)], for which the “Median Survival” value runs as follows: under setting [1], 19.5 days; under setting [2], 21.5 days; under setting [3], 19.5 days. Also, the “T/C × 100 (%)” value is, setting by setting: under setting [1], 195%; under setting [2], 215%; under setting [3], 195%.

Consider `CC(C)(C)OC(=O)N[C@@H](CCC(=O)OCc1ccccc1)C(=O)NCCNc1ccc(NCCNC(=O)[C@H](CCC(=O)OCc2ccccc2)NC(=O)OC(C)(C)C)c2c1C(=O)c1c(O)ccc(O)c1C2=O` (relative stereo) [Example 43, [S-(R*,R*)]-5,5'-(9,10-Dihydro-5,8-dihydroxy-9,10-dioxo-1,4-anthracenediyl)bis(imino-2,1-ethanediylimino)]bis[4-[[(1,1-dimethylethoxy)carbonvl]amino]-5-oxopentanoic acid]bis(phenylmethyl)ester], for which the “Median Survival” value under setting [1] amounted to 16.5 days, the “Median Survival” value under setting [2] was found to be 17.0 days and the “Median Survival” value under setting [3] amounted to 18.0 days. Moreover, the “T/C × 100 (%)” value by setting is: under setting [1], 150%; under setting [2], 155%; under setting [3], 164%.

As to `N[C@@H](CCC(=O)OCc1ccccc1)C(=O)NCCNc1ccc(NCCNC(=O)[C@@H](N)CCC(=O)OCc2ccccc2)c2c1C(=O)c1c(O)ccc(O)c1C2=O.O=C(O)C(F)(F)F.O=C(O)C(F)(F)F` (relative stereo) [Example 44, [S-(R*,R*)]-5,5'-[(9,10-Dihydro-5,8-dihydroxy-9,10-dioxo-1,4-anthracenediyl)bis(imino-2,1-ethanediylimino)]bis[4-amino-5-oxopentanoic acid]bis(phenylmethyl)ester, bis(trifluoroacetate)], the “Median Survival” value reads like this: under setting [1], 18.0 days; under setting [2], 19.5 days; under setting [3], 24.0 days. The “T/C × 100 (%)” value under setting [1] was 164%, the “T/C × 100 (%)” value under setting [2] was found to be 177% and the “T/C × 100 (%)” value under setting [3] is given as 218%.

Take `CC(C)(C)OC(=O)N[C@@H](CC(=O)OCc1ccccc1)C(=O)NCCNc1ccc(NCCNC(=O)[C@H](CC(=O)OCc2ccccc2)NC(=O)OC(C)(C)C)c2c1C(=O)c1c(O)ccc(O)c1C2=O` (relative stereo) [Example 45, [S-(R*,R*)]-4,4'-[(9,10-Dihydro-5,8-dihydroxy-9,10-dioxo-1,4-anthracenediyl)bis(imino-2,1-ethanediylimino)]bis[3-[[(1,1-dimethylethoxy)carbonyl]amino]-4-oxobutanoic acid]bis(phenylmethyl)ester]: the “Median Survival” value under setting [1] came to 14.0 days, the “Median Survival” value under setting [2] was determined as 15.5 days and the “Median Survival” value under setting [3] worked out at 18.0 days. Further, the “T/C × 100 (%)” value was 127% under setting [1], 141% under setting [2] and 164% under setting [3].

Turning to `N[C@@H](CC(=O)OCc1ccccc1)C(=O)NCCNc1ccc(NCCNC(=O)[C@@H](N)CC(=O)OCc2ccccc2)c2c1C(=O)c1c(O)ccc(O)c1C2=O.O=C(O)C(F)(F)F.O=C(O)C(F)(F)F` (relative stereo) [Example 46, [S-(R*,R*)]-4,4'-[(9,10-Dihydro-5,8-dihydroxy-9,10-dioxo-1,4-anthracenediyl)bis(imino-2,1-ethanediylimino)]bis[3-amino-4-oxobutanoic acid]bis(phenylmethyl)ester, bis(trifluoroacetate)], the “Median Survival” value is, setting by setting: under setting [1], 21.0 days; under setting [2], 25.5 days; under setting [3], 26.0 days. The “T/C × 100 (%)” value under setting [1] came out at 191%, the “T/C × 100 (%)” value under setting [2] was determined as 232% and the “T/C × 100 (%)” value under setting [3] is reported as 236%.

For `CC(C)(C)OC(=O)CC[C@H](NC(=O)OCc1ccccc1)C(=O)NCCNc1ccc(NCCNC(=O)[C@H](CCC(=O)OC(C)(C)C)NC(=O)OCc2ccccc2)c2c1C(=O)c1c(O)ccc(O)c1C2=O` (relative stereo) [Example 47, [S-(R*,R*)]-5,5'-[(9,10-Dihydro-5,8-dihydroxy-9,10-dioxo-1,4-anthracenediyl)bis(imino-2,1-ethanediylimino)]bis[5-oxo-4-[[(phenylmethoxy)carbonyl]amino]pentanoic acid], bis(1,1-dimethylethyl)ester], the “Median Survival” value under setting [1] amounted to 15.0 days, the “Median Survival” value under setting [2] stood at 17.0 days and the “Median Survival” value under setting [3] is 16.5 days. Also, the “T/C × 100 (%)” value was found to be 136% under setting [1], 155% under setting [2] and 150% under setting [3].

Turning to `O=C(O)C(F)(F)F.O=C(O)C(F)(F)F.O=C(O)CC[C@H](NC(=O)OCc1ccccc1)C(=O)NCCNc1ccc(NCCNC(=O)[C@H](CCC(=O)O)NC(=O)OCc2ccccc2)c2c1C(=O)c1c(O)ccc(O)c1C2=O` (relative stereo) [Example 48, [S-(R*,R*)]-5,5'-[(9,10-Dihydro-5,8-dihydroxy-9,10-dioxo-1,4-anthracenediyl)bis(imino-2,1-ethanediylimino)]bis[5-oxo-4-[[(phenylmethoxy)carbonyl]amino]pentanoic acid, bis(trifluoroacetate)], the “Median Survival” value reads like this: under setting [1], 14.0 days; under setting [2], 15.0 days; under setting [3], 16.5 days. In addition, the “T/C × 100 (%)” value by setting is: under setting [1], 117%; under setting [2], 125%; under setting [3], 138%.

As to `Br.Br.NCC(=O)N[C@@H](Cc1ccccc1)C(=O)NCCNc1ccc(NCCNC(=O)[C@H](Cc2ccccc2)NC(=O)CN)c2c1C(=O)c1c(O)ccc(O)c1C2=O` (relative stereo) [Example 54, [S-(R*,R*)]-N,N'-[(9,10-Dihydro-5,8-dihydroxy-9,10-dioxo-1,4-anthracenediyl)bis(imino-2,1-ethanediyl)]bis[glycyl-L-phenylalaninamide]dihydrobromide], the “Median Survival” value was 18.5 days under setting [1], 19.0 days under setting [2] and 19.0 days under setting [3]. Moreover, the “T/C × 100 (%)” value reads like this: under setting [1], 185%; under setting [2], 195%; under setting [3], 190%.

Values taken from US4732970A, “Antitumor amino acid and peptide derivatives of 1,4-bis(aminoalkyl and hydroxy-aminoalkyl)amino)-5,8-dihydroxyanthraquinones” (priority 1986, dated 1988).
